Data on 11 compounds can be found in ChEMBL document CHEMBL1201862, “PubChem BioAssay data set” (2004).

Test systems include OVCAR-4; SK-MEL-28; OVCAR-3; SNB-75; OVCAR-8; HL-60; SF-295; Hs-578T; KM12; A498; SF-268; HOP-62; UO-31; T47D; HCT-116; HOP-92; M14; MDA-N; OVCAR-5.
Common to all, as to assay: NCI tumour cell line growth inhibition, 48 h

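Test compounds were applied to cells in 96-well plates for 48 hours at 5 doses. Here, GI50 denotes the concentration required for 50% inhibition of growth.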 The source made the active and inactive calls. No stated cut-off is given here; in the data, active = GI50 up to about 1.1 µM and inactive = higher.

Take `CN(C)c1ccc(/C=c2\c3cc([N+](=O)[O-])ccc3n3c2cc(-c2ccccc2)[n+]3C)cc1`: the GI50 in the experiment on OVCAR-4 is 2.17 µM (inactive); with SK-MEL-28, 0.948 µM (active); in the experiment with OVCAR-3 it was 1.46 µM (inactive); in the experiment on SNB-75, 1.07 µM (active); in the experiment on OVCAR-8, 1.45 µM (inactive); in the experiment on HL-60 it was 0.292 µM (active). Further, the GI50 in the experiment with SF-295 was 2.32 µM (inactive); in the experiment on Hs-578T, 1.62 µM (inactive); in the experiment with KM12, 1.04 µM (active); with A498 it was 2.28 µM (inactive); in the experiment with SF-268, 0.923 µM (active); with HOP-62 it was 2.04 µM (inactive). The GI50 in the experiment on UO-31 is 7.41 µM (inactive); in the experiment with T47D it was 0.458 µM (active); in the experiment with HCT-116, 0.885 µM (active); in the experiment with HOP-92, 1.18 µM (inactive); with M14 it was 1 µM (active); with MDA-N, 0.437 µM (active). In addition, the GI50 in the experiment with OVCAR-5 is 3.63 µM (inactive).
In the case of `C/C(=N\NC(=S)NCCNC(=S)N/N=C(\C)c1ccccn1)c1ccccn1`, the GI50 with OVCAR-4 was 2.9 µM (inactive); in the experiment with SK-MEL-28, 4.75 µM (inactive); in the experiment on OVCAR-3 it was 2.74 µM (inactive); in the experiment on SNB-75 it was 1.73 µM (inactive); in the experiment with OVCAR-8 it was 1.56 µM (inactive); in the experiment on HL-60, 0.789 µM (active). Moreover, the GI50 in the experiment with SF-295 is 3.45 µM (inactive); in the experiment with Hs-578T, > 73.1 µM (inactive); in the experiment on KM12, 3.87 µM (inactive); in the experiment on A498, 4.44 µM (inactive); in the experiment on SF-268, 1.9 µM (inactive); in the experiment on HOP-62 it was 1.83 µM (inactive). In addition, the GI50 is 1.43 µM (inactive) with UO-31; 4.43 µM (inactive) in the experiment on T47D; 2.75 µM (inactive) in the experiment on HCT-116; 3.91 µM (inactive) in the experiment on HOP-92; 1.5 µM (inactive) with M14; 4.51 µM (inactive) in the experiment with MDA-N. Also, in the experiment with OVCAR-5, the GI50 was 3.98 µM (inactive).
In the case of `COC1/C=C/C(C)C(C(C)C(OC)C(C)CCC(=O)C(C)C(CC(=O)O)OC)OC(=O)/C=C/C=C(\C)CC(OC)CC2=CC(=O)O[C@H](C2)C(C)C(OC)CC(OC)/C=C/C(C)C(OC)C1` (some centres undefined), the GI50 in the experiment with OVCAR-4 was 0.275 µM (active); in the experiment on SK-MEL-28, 0.101 µM (active); in the experiment on OVCAR-3, 1.07 µM (active); in the experiment with SNB-75, 0.00746 µM (active); in the experiment on OVCAR-8, 1.14 µM (inactive); in the experiment on HL-60, 0.118 µM (active). Further, the GI50 in the experiment on SF-295 was 0.258 µM (active); in the experiment on Hs-578T it was 0.0759 µM (active); in the experiment on KM12, 0.452 µM (active); in the experiment with A498 it was 0.24 µM (active); with SF-268, 0.0548 µM (active); in the experiment on HOP-62, 0.45 µM (active). In addition, the GI50 is 0.458 µM (active) in the experiment on UO-31; 1.16 µM (inactive) with T47D; 0.124 µM (active) in the experiment with HOP-92; 0.222 µM (active) in the experiment on M14; 0.841 µM (active) with MDA-N; 1.02 µM (active) with OVCAR-5.
As for `CCOC(=O)/C(=N\Nc1ccc(-n2c(C)nc3ccccc3c2=O)cc1)C(C)=O`, the GI50 with SK-MEL-28 was 20.3 µM (inactive); in the experiment on OVCAR-3, 21.7 µM (inactive); in the experiment on SNB-75 it was 17.2 µM (inactive); with OVCAR-8, 19.6 µM (inactive); in the experiment with HL-60, 14 µM (inactive); in the experiment on SF-295, 33 µM (inactive). The GI50 in the experiment with Hs-578T was 20.7 µM (inactive); with KM12 it was 17.7 µM (inactive); with A498, 99.3 µM (inactive); in the experiment with SF-268 it was 25.8 µM (inactive); with HOP-62 it was 40.2 µM (inactive); with UO-31 it was 29.1 µM (inactive). The GI50 in the experiment with T47D was 21 µM (inactive); in the experiment on HCT-116, 36 µM (inactive); in the experiment with HOP-92, 11.9 µM (inactive); in the experiment on M14 it was 24.2 µM (inactive); in the experiment with MDA-N, 29 µM (inactive); in the experiment with OVCAR-5, > 100 µM (inactive).
On to `CCOC1OC(=O)c2cc3ccc4c(c3c(-c3ccc5c(c3)OCO5)c21)OCO4` (centres undefined), for which the GI50 was 16.7 µM (inactive) in the experiment with OVCAR-4; 9.53 µM (inactive) with SK-MEL-28; 0.417 µM (active) in the experiment on OVCAR-3; 1.08 µM (active) in the experiment on SNB-75; 35.7 µM (inactive) with OVCAR-8; 9.91 µM (inactive) in the experiment with HL-60. In addition, the GI50 with SF-295 was 2.27 µM (inactive); with Hs-578T it was 3.2 µM (inactive); with KM12, 4.58 µM (inactive); with A498 it was 9.4 µM (inactive); in the experiment with SF-268, 5.46 µM (inactive); with HOP-62 it was 4.63 µM (inactive). Also, the GI50 in the experiment with UO-31 is 22 µM (inactive); in the experiment on T47D, 9.79 µM (inactive); in the experiment on HCT-116 it was 2.43 µM (inactive); with HOP-92 it was 96.8 µM (inactive); in the experiment on M14, 3.4 µM (inactive); in the experiment with MDA-N, 1.9 µM (inactive). The GI50 in the experiment on OVCAR-5 was 14.5 µM (inactive).
With `CCc1ccc2nccc(NCCCN(C)C)c2c1[N+](=O)[O-]`, the GI50 in the experiment with OVCAR-4 is 90.2 µM (inactive); in the experiment with SK-MEL-28, > 100 µM (inactive); in the experiment with OVCAR-3, 41.1 µM (inactive); in the experiment with SNB-75, 50 µM (inactive); in the experiment with OVCAR-8, > 100 µM (inactive); in the experiment on HL-60, > 100 µM (inactive). The GI50 is 75.7 µM (inactive) in the experiment on SF-295; 30.9 µM (inactive) with Hs-578T; > 100 µM (inactive) with KM12; > 100 µM (inactive) in the experiment on A498; > 100 µM (inactive) in the experiment on SF-268; > 100 µM (inactive) in the experiment on HOP-62. In addition, the GI50 with UO-31 is 86.3 µM (inactive); with T47D, > 100 µM (inactive); in the experiment with HCT-116 it was 41.2 µM (inactive); in the experiment with HOP-92, > 100 µM (inactive); in the experiment on M14, 28.8 µM (inactive); in the experiment on MDA-N it was 64.7 µM (inactive). Besides, the GI50 with OVCAR-5 was 33.5 µM (inactive).
`O=C1/C(=C\Oc2ccc(F)cc2)N2CCC1CC2`: the GI50 with OVCAR-4 was 46.8 µM (inactive); in the experiment with SK-MEL-28 it was 87.1 µM (inactive); in the experiment with OVCAR-3, > 100 µM (inactive); in the experiment on SNB-75 it was 24.8 µM (inactive); in the experiment on OVCAR-8, 85.1 µM (inactive); in the experiment with HL-60 it was 35.2 µM (inactive). For the same compound, the GI50 in the experiment with SF-295 is > 100 µM (inactive); in the experiment with Hs-578T, 28.7 µM (inactive); in the experiment with A498 it was > 100 µM (inactive); with SF-268, 89.5 µM (inactive); with HOP-62, > 100 µM (inactive); in the experiment on UO-31, 45.1 µM (inactive). In addition, the GI50 was 54.6 µM (inactive) in the experiment with T47D; 34.8 µM (inactive) with HCT-116; 41.4 µM (inactive) with HOP-92; > 100 µM (inactive) in the experiment with M14; 47.2 µM (inactive) with MDA-N; > 100 µM (inactive) in the experiment on OVCAR-5.
In the case of `CSC1=NC(=O)CCN1C1OCC(OC(C)=O)C(OC(C)=O)C1OC(C)=O` (centres undefined), the GI50 was 19.2 µM (inactive) in the experiment on OVCAR-4; 16.1 µM (inactive) with SK-MEL-28; 12.6 µM (inactive) in the experiment with OVCAR-3; 14.7 µM (inactive) with SNB-75; 15.8 µM (inactive) in the experiment on OVCAR-8; 2.99 µM (inactive) in the experiment with HL-60. Further, the GI50 with SF-295 is 20.1 µM (inactive); with Hs-578T it was 12.6 µM (inactive); in the experiment with KM12, 21.5 µM (inactive); with A498, 15.6 µM (inactive); in the experiment with SF-268, 16.9 µM (inactive); in the experiment with HOP-62, 18.7 µM (inactive). Further, the GI50 with UO-31 was 19.3 µM (inactive); in the experiment with T47D it was 16.8 µM (inactive); in the experiment on HCT-116, 5.45 µM (inactive); in the experiment with HOP-92 it was 14.8 µM (inactive); with M14 it was > 10 µM (inactive); with MDA-N it was > 10 µM (inactive). Besides, the GI50 in the experiment on OVCAR-5 was 19.6 µM (inactive).
`N#CC(c1ccccc1)N1CCCN(C(C#N)c2ccccc2)C1c1ccccc1O` (centres undefined): the GI50 in the experiment on OVCAR-4 was > 100 µM (inactive); in the experiment with SK-MEL-28, > 100 µM (inactive); with OVCAR-3, 48.3 µM (inactive); in the experiment with SNB-75, > 100 µM (inactive); in the experiment on OVCAR-8 it was > 100 µM (inactive); with HL-60 it was 0.0362 µM (active). In addition, the GI50 in the experiment on SF-295, with Hs-578T, with KM12, with A498, in the experiment on SF-268 and with HOP-62 was > 100 µM (inactive) each time. Also, the GI50 was > 100 µM (inactive) in the experiment on UO-31; > 100 µM (inactive) in the experiment with T47D; 93.5 µM (inactive) in the experiment on HCT-116; 22.7 µM (inactive) in the experiment with HOP-92; > 100 µM (inactive) in the experiment with M14; > 100 µM (inactive) in the experiment with MDA-N. For the same compound, the GI50 in the experiment with OVCAR-5 was > 100 µM (inactive).
`Cc1ccc(S(=O)(=O)NC(CCC(=O)NNc2ccccc2)C(=O)NNc2ccccc2)cc1` (centres undefined): the GI50 with OVCAR-4 was 25.8 µM (inactive); with OVCAR-3 it was 54.6 µM (inactive); in the experiment on SNB-75, > 100 µM (inactive); in the experiment with OVCAR-8, 6.43 µM (inactive); in the experiment with HL-60, > 100 µM (inactive); with SF-295, 10.4 µM (inactive). For the same compound, the GI50 in the experiment with Hs-578T was 64.1 µM (inactive); with KM12 it was 2.84 µM (inactive); in the experiment on A498 it was > 100 µM (inactive); with SF-268 it was 46.8 µM (inactive); with HOP-62, > 100 µM (inactive); with UO-31, 6.1 µM (inactive). For the same compound, the GI50 is 5.47 µM (inactive) with T47D; 30.7 µM (inactive) in the experiment with HCT-116; > 100 µM (inactive) in the experiment on HOP-92; 9.53 µM (inactive) with M14; 17.2 µM (inactive) with MDA-N; 46.8 µM (inactive) in the experiment with OVCAR-5.
For `COc1ccc2c(c1)N(CCC1CCCCN1C)c1ccccc1S2` (centres undefined) [OXYRIDAZINE], the GI50 was 11.1 µM (inactive) in the experiment on OVCAR-4; 3.58 µM (inactive) with SK-MEL-28; 15.6 µM (inactive) with OVCAR-3; 11.6 µM (inactive) in the experiment with SNB-75; 15 µM (inactive) with OVCAR-8; 9.14 µM (inactive) with HL-60. The GI50 was 16 µM (inactive) with SF-295; 10.3 µM (inactive) in the experiment on Hs-578T; 10.8 µM (inactive) in the experiment with KM12; 10.8 µM (inactive) with A498; 12.4 µM (inactive) in the experiment with SF-268; 15.8 µM (inactive) with HOP-62. The GI50 was 10.8 µM (inactive) in the experiment with T47D; 12.8 µM (inactive) with HCT-116; 9.08 µM (inactive) in the experiment on HOP-92; 3.13 µM (inactive) in the experiment on M14; 12 µM (inactive) in the experiment with MDA-N; 15.2 µM (inactive) in the experiment on OVCAR-5.
